This note sets out measurements from patent US11905263B1, “4-nitro-N′-(2-(5-phenyl-1,3,4-oxadiazol-2-ylthio)acetoxy)benzimidamide as an antimicrobial compound” (KING FAISAL UNIVERSITY, priority 2023, dated 2024).

Common to all, as to format: cell-based
In one test the test system is Aspergillus flavus. Description: Agar plate disc-diffusion, antifungal, inhibition zone. The settings on record: fungal. On the procedure: (§1) The agar plate disc-diffusion method was applied. […] The discs were then placed onto the surface of agar plates (nutrient agar for bacteria and Sabouraud's dextrose agar for fungi) seeded with the test organism. Each plate contained 15 mL of the agar medium, previously seeded with 0.2 mL of the broth culture of each organism pregrown for 18 hours. The plates were incubated at 37° C. for 48 hours, and 72 hours for fungi. The inhibition zones was measured in mm. Discs impregnated with DMSO were used as a control, and its inhibition zone was subtracted from the tested compound actual inhibition zone.
For orientation: A growth-free zone around the sample is the usual read-out of agar diffusion tests.

The subject of test [1] is Chrysosporium keratinophilum. The description is as above. The note with it: fungal. On the procedure: as §1
A further test has as its system Pseudomonas aeruginosa. Description: Agar plate disc-diffusion, antibacterial, inhibition zone. The note with it: Gram negative. On the procedure:
as §1

In a further test the test system is Bacillus cereus. The test is described as above. The note with it: Gram positive. On the procedure:
as §1

Another test relates to Escherichia coli. Described as above. The settings on record: Gram negative. The procedure:
as §1

A further test relates to Staphylococcus aureus. The description is as above. The settings on record: Gram positive. On the procedure: as §1
Setting [2] is: A = concentration of comp. = 10,000 μL.
Where [3] appears, read: B = concentration of comp. = 30,000 μL.
The mark [4] stands for this setting: C = concentration of comp. = 50,000 μL.

As to `N/C(=N\OC(=O)CSc1nnc(-c2ccccc2)o1)c1ccc([N+](=O)[O-])cc1` [Compound 3, 4-nitro-N′-(2-(5-phenyl-1,3,4-oxadiazol-2-ylthio)acetoxy)benzimidamide], the “inhibition zone, Aspergillus flavus” value in the test with Aspergillus flavus (setting [2]) was 17 mm; in the test with Aspergillus flavus (setting [3]), 23 mm; with Aspergillus flavus (setting [4]) it was 35 mm. Moreover, the results for the “inhibition zone, Chrysosporium keratinophilum” value in test [1] (setting [2]), in test [1] (setting [3]) and in test [1] (setting [4]) were 26 mm, 28 mm and 43 mm, respectively. Moreover, the “inhibition zone, Pseudomonas aeruginosa” value in the test on Pseudomonas aeruginosa (setting [2]) came to 19 mm; in the test on Pseudomonas aeruginosa (setting [3]) it was 25 mm; in the test on Pseudomonas aeruginosa (setting [4]), 36 mm. The entries for the “inhibition zone, Bacillus Cereus” value in the test with Bacillus cereus (setting [2]), in the test on Bacillus cereus (setting [3]) and in the test with Bacillus cereus (setting [4]) were 20 mm, 25 mm and 34 mm, respectively. The “inhibition zone, Escherichia coli” value in the test with Escherichia coli (setting [2]) was determined as 27 mm; in the test with Escherichia coli (setting [3]), 33 mm; in the test on Escherichia coli (setting [4]), 48 mm. Moreover, the “inhibition zone, Staphylococcus aureus” value in the test with Staphylococcus aureus (setting [2]) is listed as 19 mm; in the test with Staphylococcus aureus (setting [3]) it was 22 mm; with Staphylococcus aureus (setting [4]), 38 mm.
